Source: PubChem BioAssay AID330 (DTP/NCI, 2004)
Where “and” joins values, the source holds several entries; their conditions need not be identical. Equal values may be shown once. Toxic doses and inconclusive results are not listed. The calls were made as follows: active = survival T/C of 150% or more; inactive = T/C below 125% in these data. Peptide text beside a SMILES is read from it. * marks the point of attachment. Trt = c1ccc(C(c2ccccc2)(c2ccccc2)*)cc1; Cbz = O=C(OCc1ccccc1)*; Bn = c1ccc(C*)cc1; βAla = NCCC(=O)O

Tested on: P388 leukemia ip, CD2F1 mice, survival T/C
Test: NCI In Vivo Anticancer Drug Screen. Data for tumor model P388 Leukemia (intraperitoneal) in CD2F1 (CDF1) mice
Settings: endpoint: median survival time, higher = longer survival
Summary of the method: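 Mice carrying the transplanted tumor received test compound or vehicle. Survival was recorded in each group, and the value is the treated-group measurement divided by that of the vehicle-treated control group.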

[1] = dose: 50.0 mg/kg/injection, schedule: Q01DX005 (ip), vehicle: saline with Tween-80
[2] = dose: 100.0 mg/kg/injection, schedule: Q01DX005 (ip), vehicle: saline with Tween-80
[3] = dose: 200.0 mg/kg/injection, schedule: Q01DX005 (ip), vehicle: saline with Tween-80
[4] = dose: 50.0 mg/kg/injection, schedule: Q01DX009 (ip), vehicle: Klucel (hydroxypropylcellulose) (HPC)
[5] = dose: 100.0 mg/kg/injection, schedule: Q01DX009 (ip), vehicle: Klucel (hydroxypropylcellulose) (HPC)
[6] = dose: 60.0 mg/kg/injection, schedule: Q01DX005 (ip), vehicle: saline with Tween-80
[7] = dose: 120.0 mg/kg/injection, schedule: Q01DX005 (ip), vehicle: saline with Tween-80
[8] = dose: 240.0 mg/kg/injection, schedule: Q01DX005 (ip), vehicle: saline with Tween-80
[9] = dose: 12.5 mg/kg/injection, schedule: Q01DX005 (ip), vehicle: Klucel (hydroxypropylcellulose) (HPC)
[10] = dose: 25.0 mg/kg/injection, schedule: Q01DX005 (ip), vehicle: Klucel (hydroxypropylcellulose) (HPC)
[11] = dose: 50.0 mg/kg/injection, schedule: Q01DX005 (ip), vehicle: Klucel (hydroxypropylcellulose) (HPC)
[12] = dose: 100.0 mg/kg/injection, schedule: Q01DX005 (ip), vehicle: Klucel (hydroxypropylcellulose) (HPC)
[13] = dose: 200.0 mg/kg/injection, schedule: Q01DX005 (ip), vehicle: Klucel (hydroxypropylcellulose) (HPC)

Measured: T/C

CSc1c(Cl)cc(Cl)cc1C(=O)O
inactive: dose: 16.5 mg/kg/injection, schedule: Q01DX009 (ip), vehicle: saline with Tween-80 100 % of control and 110 % of control | dose: 25.0 mg/kg/injection, schedule: Q01DX009 (ip), vehicle: saline with Tween-80 105 % of control and 106 % of control | dose: 37.5 mg/kg/injection, schedule: Q01DX009 (ip), vehicle: saline with Tween-80 117 % of control and 97 % of control | dose: 50.0 mg/kg/injection, schedule: Q01DX009 (ip), vehicle: saline + alcohol 112 % of control | dose: 100.0 mg/kg/injection, schedule: Q01DX009 (ip), vehicle: saline + alcohol 110 % of control | dose: 200.0 mg/kg/injection, schedule: Q01DX009 (ip), vehicle: saline + alcohol 112 % of control

CCN(CCC#N)C(=O)c1cccc([N+](=O)[O-])c1
inactive: dose: 60.0 mg/kg/injection, schedule: Q01DX005 (ip), vehicle: Klucel (hydroxypropylcellulose) (HPC) 102 % of control | dose: 120.0 mg/kg/injection, schedule: Q01DX005 (ip), vehicle: Klucel (hydroxypropylcellulose) (HPC) 94 % of control

CCOC(=O)c1cn(C)c(=O)c(Br)c1C#N
inactive: [1] 92 % of control | [2] 96 % of control | [3] 93 % of control

O=C1c2ccccc2CCC12OC2c1ccncc1 (configuration not stated)
inactive: dose: 25.0 mg/kg/injection, schedule: Q01DX009 (ip), vehicle: Klucel (hydroxypropylcellulose) (HPC) 107 % of control | [4] 110 % of control | [5] 100 % of control

CC(=O)NC(C)c1ccc2ccccc2c1 (configuration not stated)
inactive: [6] 97 % of control | [7] 96 % of control | [8] 97 % of control

O=[N+]([O-])c1ccc([Se]CCO)c([N+](=O)[O-])c1
inactive: [4] 101 % of control | [5] 99 % of control

Cn1c(=O)n2n(c1=O)C1(CCO)CCC2(CCO)CC1
inactive: [1] 99 % of control | [2] 103 % of control | [3] 100 % of control

COCCOC(=O)Nc1c(Cl)cccc1Cl
inactive: [6] 98 % of control | [7] 100 % of control | [8] 100 % of control

CC1CC(C)/C(=N/NC(N)=O)C(C(O)CC2CCC(=O)NC2=O)C1 (configuration not stated)
inactive: [1] 100 % of control | [2] 115 % of control | [3] 115 % of control

COc1cc([C@H]2OC[C@H]3[C@@H]2CO[C@@H]3c2ccc(OC(C)=O)c(OC)c2)ccc1OC(C)=O
inactive: [9] 96 % of control | [10] 93 % of control | [11] 86 % of control

CC(=O)C1=CC[C@H]2[C@@H]3C=CC4=CC(=O)CC[C@]4(C)[C@H]3C[C@@H](O)[C@]12C
inactive: [9] 99 % of control | [10] 96 % of control | [11] 107 % of control | [12] 99 % of control | [13] 106 % of control

COC(=O)C(CSC(c1ccccc1)(c1ccccc1)c1ccccc1)NC(=O)C(CSCc1ccccc1)NC(=O)CCNC(=O)OCc1ccccc1 (configuration not stated) ({Cbz-βAla}-Cys(Bn)-Cys(Trt)-OMe; configuration not given here)
inactive: dose: 4.0 mg/kg/injection, schedule: Q01DX009 (ip), vehicle: water 102 % of control | dose: 8.0 mg/kg/injection, schedule: Q01DX009 (ip), vehicle: water 100 % of control | [9] 99 % of control | dose: 16.0 mg/kg/injection, schedule: Q01DX009 (ip), vehicle: water 99 % of control | [10] 102 % of control | dose: 32.0 mg/kg/injection, schedule: Q01DX009 (ip), vehicle: water 99 % of control | [11] 102 % of control | dose: 64.0 mg/kg/injection, schedule: Q01DX009 (ip), vehicle: water 89 % of control | [12] 102 % of control | dose: 128.0 mg/kg/injection, schedule: Q01DX009 (ip), vehicle: water 86 % of control | [13] 103 % of control
